These results are taken from PubChem BioAssay (NCI).

Some test systems named below: NCI/ADR-RES ovarian; MCF7 breast; HS 578T breast; T-47D breast; MDA-MB-231 breast.
Assay in all cases: NCI-60 cell line screen, 48 h

Values joined by “and” are separate entries in the source; they are usually repeats but may differ in a detail not shown here. Equal values may be shown once.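 Cells were grown in 96-well plates and exposed to each compound for 48 hours at five concentrations; endpoints were interpolated linearly between bracketing concentrations, or set to the highest concentration if not reached. GI50 is the concentration that inhibits growth by half. TGI: total growth inhibition.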

`[2H]c1nc(=Nc2cc(NC(=O)C=C)c(N(C)CCN(C)C)cc2OC)[nH]c(-c2cn(C([2H])([2H])[2H])c3ccccc23)c1[2H]`: the GI50 in the test on NCI/ADR-RES ovarian is 1.39 µM; in the test on MCF7 breast, 1.39 µM; with HS 578T breast, 2.59 µM; in the test on T-47D breast, 1.07 µM; with MDA-MB-231 breast, 1.27 µM. The TGI with NCI/ADR-RES ovarian was determined as 5.02 µM; in the test on MCF7 breast it was 3.23 µM; in the test on HS 578T breast, 9.74 µM; in the test with T-47D breast it was 2.83 µM; with MDA-MB-231 breast it was 2.81 µM.

In the case of `CCn1c(-c2nonc2N)nc2ccncc21`, the GI50 with NCI/ADR-RES ovarian, in the test on MCF7 breast, with HS 578T breast, with T-47D breast and in the test on MDA-MB-231 breast was > 25 µM in each case. Moreover, the TGI with NCI/ADR-RES ovarian, in the test on MCF7 breast, with HS 578T breast, in the test with T-47D breast and in the test on MDA-MB-231 breast was > 25 µM in each case.

For `COc1c(O)c(OC)c2oc(-c3ccc(O)cc3)c(OC)c(=O)c2c1O`, the TGI in the test on NCI/ADR-RES ovarian was > 100 µM; with MCF7 breast it was > 100 µM; in the test with HS 578T breast it was 57 µM; in the test with T-47D breast, 55.7 µM; in the test with MDA-MB-231 breast, > 100 µM.

Consider `COc1ccc(F)c(F)c1C(=O)c1cnc(NC2CCN(S(C)(=O)=O)CC2)nc1N`, for which the GI50 in the test on NCI/ADR-RES ovarian was 2.63 µM and 1.65 µM; in the test with MCF7 breast, 0.0674 µM and 0.0458 µM; in the test with HS 578T breast, 1.52 µM and 0.695 µM; in the test on T-47D breast it was 1.04 µM and 0.678 µM; with MDA-MB-231 breast it was 0.805 µM and 0.262 µM. For the same molecule, the TGI was > 100 µM with NCI/ADR-RES ovarian; > 100 µM in the test on MCF7 breast; 6.12 µM and > 8.4 µM in the test on HS 578T breast; 11.8 µM and > 8.01 µM with T-47D breast.

With `CC(C)Oc1ccc(C(=O)Cn2ccnc2)cc1-n1c(CN2CCN(C(=O)COc3ccc(Cl)cc3)CC2)nc2ccccc2c1=O`, the GI50 with NCI/ADR-RES ovarian is > 100 µM; with MCF7 breast it was 12 µM; in the test with HS 578T breast it was 15.8 µM; in the test on T-47D breast it was 14.3 µM; in the test with MDA-MB-231 breast it was 4.32 µM. Moreover, the TGI was > 100 µM in the test on NCI/ADR-RES ovarian; 35.5 µM in the test on MCF7 breast; 46.6 µM with HS 578T breast; > 95.4 µM in the test on T-47D breast; 19.7 µM with MDA-MB-231 breast.

As to `OCc1ccc(N2CCOCC2)cc1Cl`, the GI50 was > 100 µM in the test on NCI/ADR-RES ovarian; 15.8 µM in the test with MCF7 breast; > 100 µM in the test with HS 578T breast; 14.7 µM in the test with T-47D breast; > 100 µM in the test on MDA-MB-231 breast. Moreover, the TGI in the test with NCI/ADR-RES ovarian was > 100 µM; with MCF7 breast, > 100 µM; with HS 578T breast, > 100 µM; with T-47D breast, > 84.1 µM; in the test with MDA-MB-231 breast, > 100 µM.

Turning to `c1cnn2ncc(-c3ccnc(Nc4ccc5c(c4)OCCO5)n3)c2c1`, the GI50 in the test on NCI/ADR-RES ovarian was 0.0781 µM; in the test with MCF7 breast it was 0.0797 µM; with HS 578T breast, 0.0747 µM; in the test on T-47D breast, 0.084 µM; in the test on MDA-MB-231 breast, 0.0914 µM. Also, the TGI is 1.65 µM in the test with NCI/ADR-RES ovarian; > 25 µM in the test on MCF7 breast; 0.323 µM in the test with HS 578T breast; 0.495 µM with T-47D breast; > 25 µM in the test with MDA-MB-231 breast.

Turning to `CC1OC(c2ccc3c(c2O)C(=O)C2=C(C3=O)C3(O)C(=O)CC(C)(O)CC3(O)C=C2)CC(O)C1O` (stereo unspecified), the TGI with NCI/ADR-RES ovarian stood at 51.8 µM; with MCF7 breast, 9 µM; with HS 578T breast it was 53.2 µM; in the test with T-47D breast, 28.3 µM; with MDA-MB-231 breast it was 6.17 µM.

For `COc1ccc(C2=C(N3CCc4ccccc43)C(=O)NC2=O)cc1`, the GI50 is > 25 µM in the test with NCI/ADR-RES ovarian; > 25 µM in the test on MCF7 breast; > 20.9 µM in the test with HS 578T breast; > 17.8 µM in the test on T-47D breast; > 22.4 µM in the test on MDA-MB-231 breast. Further, the TGI in the test with NCI/ADR-RES ovarian, with MCF7 breast, with HS 578T breast, in the test with T-47D breast and in the test with MDA-MB-231 breast was > 25 µM throughout.

On to `O=C(NCCN1CCNCC1)c1ccc(Nc2nc3ccccc3c3occc23)cc1`, for which the GI50 in the test on NCI/ADR-RES ovarian is 21 µM; with MCF7 breast, 30.2 µM; in the test with HS 578T breast it was 14.3 µM; in the test with T-47D breast, 5.71 µM; with MDA-MB-231 breast, 11.8 µM. Besides, the TGI with NCI/ADR-RES ovarian was 46.5 µM; with MCF7 breast it was > 100 µM; in the test with HS 578T breast it was 38.4 µM; in the test on T-47D breast it was 35.4 µM; with MDA-MB-231 breast it was 25.8 µM.

Consider `Nc1cc(-c2ccc(Cl)cc2)nn1-c1nnc(/C=C/c2ccco2)c(=O)[nH]1`, for which the GI50 in the test with NCI/ADR-RES ovarian is 1.48 µM; in the test with MCF7 breast it was 2.95 µM; in the test with HS 578T breast, 10.2 µM; in the test on T-47D breast, 5.35 µM; in the test with MDA-MB-231 breast, 11.2 µM. The TGI in the test on NCI/ADR-RES ovarian was 10.5 µM; in the test with MCF7 breast, 26.1 µM; with HS 578T breast, > 64.3 µM; with T-47D breast, > 66.5 µM; with MDA-MB-231 breast it was > 100 µM.

As for `O=C1/C(=C/c2cccc([N+](=O)[O-])c2)Sc2scc(-c3ccc([N+](=O)[O-])cc3)[n+]21`, the TGI with NCI/ADR-RES ovarian was 89.2 µM; in the test on MCF7 breast it was > 100 µM; with T-47D breast, > 100 µM; in the test with MDA-MB-231 breast, 72.5 µM.

For `CCOC(=O)c1c(SCCN2CCOCC2)n(-c2ccccc2)c(=S)n(-c2ccccc2)c1=O`, the TGI in the test on MCF7 breast is 41.5 µM; with HS 578T breast, 87.4 µM; in the test on T-47D breast, > 100 µM; in the test on MDA-MB-231 breast it was > 100 µM.

Turning to `O=C1c2ccccc2-c2c1c1ccccc1c(=O)n2CCNCCn1c2c(c3ccccc3c1=O)C(=O)c1ccccc1-2`, the GI50 was > 25 µM in the test on NCI/ADR-RES ovarian, > 25 µM in the test with MCF7 breast, > 25 µM in the test with HS 578T breast and 18.2 µM with MDA-MB-231 breast. Moreover, the TGI in the test on NCI/ADR-RES ovarian, in the test with MCF7 breast, in the test on HS 578T breast and in the test on MDA-MB-231 breast was > 25 µM throughout.

As for `Cc1ccc(NC(=O)/C(Cc2nc3ccc([N+](=O)[O-])cc3[nH]c2=O)=N\NC(=O)C[n+]2ccccc2)c(C)c1`, the TGI in the test on NCI/ADR-RES ovarian is > 100 µM; in the test with MCF7 breast, > 100 µM; in the test on HS 578T breast it was > 100 µM; in the test with MDA-MB-231 breast it was 86.4 µM.

`COc1ccc(-c2cnoc2-c2cc(OC)c3c(c2)OCCO3)cc1`: the GI50 is < 0.0132 µM in the test with NCI/ADR-RES ovarian, 0.0304 µM in the test on MCF7 breast, 0.0283 µM in the test on HS 578T breast and 0.0509 µM with MDA-MB-231 breast. Also, the TGI with NCI/ADR-RES ovarian was 49.5 µM; in the test with MCF7 breast, > 100 µM; in the test with HS 578T breast, 11.7 µM.
